Source: patent publication US10093713B2, “GIP-GLP-1 dual agonist compounds and methods” (priority 2013, dated 2018)
*1 amine or outer side, *2 acyl side, *3 side chain or, on linkers, in order; H or OH if unused. Where a SMILES comes first, the peptide text is derived from it. Side-chain parts run from the residue outwards. [ ]: non-standard residue; d: D form. The star is where a group is joined. C20 diacid = O=C(O)CCCCCCCCCCCCCCCCCCC(=O)*; γGlu = O=C(O)[C@H](CCC(=O)[*:2])N[*:1]; AEEA = NCCOCCOCC(=O)O; Aib = CC(C)(N)C(=O)O

Key:
human GLP-1 R = target: T1, human GLP-1 R (Homo sapiens, UniProt P43220); experiment: Human GLP-1 receptor (GLP-1 R) activity assay, cAMP induction (AlphaScreen) in HEK293 cells; type: cell-based; conditions: Table 3; most comprehensive data; read-out: hGLP-1-R cAMP EC50 average value
T1 construct: expressed in transfected cells
T1 sequence (P43220 24-463): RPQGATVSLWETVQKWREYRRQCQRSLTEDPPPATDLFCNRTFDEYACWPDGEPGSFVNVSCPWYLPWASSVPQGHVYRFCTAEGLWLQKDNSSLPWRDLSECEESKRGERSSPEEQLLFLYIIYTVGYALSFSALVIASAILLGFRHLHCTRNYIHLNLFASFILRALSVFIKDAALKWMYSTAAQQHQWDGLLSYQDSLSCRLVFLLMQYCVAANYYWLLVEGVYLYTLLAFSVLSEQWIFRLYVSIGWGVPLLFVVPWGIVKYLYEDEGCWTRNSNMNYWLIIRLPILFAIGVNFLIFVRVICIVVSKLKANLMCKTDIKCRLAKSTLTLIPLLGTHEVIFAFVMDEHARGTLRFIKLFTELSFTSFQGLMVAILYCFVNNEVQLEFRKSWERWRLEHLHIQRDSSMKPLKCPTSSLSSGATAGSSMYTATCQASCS
Outline: (§1)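 Stable HEK293 clones expressing human GIP R or GLP-1 R, seeded 1 day before; cells washed in Tyrode's buffer (10 mM HEPES, pH 7.4), stimulated, then lysed. cAMP measured by AlphaScreen bead competition (1 h, room temperature, dark). EC50 = concentration giving half-maximal cAMP elevation, from curves of absolute cAMP (nM) vs log concentration.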

human GIP R = target: T2, human GIP R (Homo sapiens, UniProt P48546); experiment: Human GIP receptor (GIP R) activity assay, cAMP induction (AlphaScreen) in HEK293 cells; type: cell-based; conditions: Table 3; most comprehensive data; read-out: hGIP-R cAMP EC50 average value
T2 construct: expressed in transfected cells
T2 sequence (P48546 22-466): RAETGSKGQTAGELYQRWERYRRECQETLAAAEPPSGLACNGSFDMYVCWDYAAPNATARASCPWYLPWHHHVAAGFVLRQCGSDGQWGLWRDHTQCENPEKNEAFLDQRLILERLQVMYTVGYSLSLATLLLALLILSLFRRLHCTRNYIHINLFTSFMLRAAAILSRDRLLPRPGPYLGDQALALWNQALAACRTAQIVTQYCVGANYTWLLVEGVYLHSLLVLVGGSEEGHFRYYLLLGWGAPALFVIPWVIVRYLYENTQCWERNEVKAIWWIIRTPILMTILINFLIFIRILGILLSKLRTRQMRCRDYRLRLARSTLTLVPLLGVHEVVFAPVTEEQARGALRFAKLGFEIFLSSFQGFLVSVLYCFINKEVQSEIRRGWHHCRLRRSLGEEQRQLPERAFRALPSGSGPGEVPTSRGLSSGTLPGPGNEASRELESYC
Outline: as §1

Row | SMILES | EC50 (human GLP-1 R) | EC50 (human GIP R)
1 | CC[C@H](C)[C@H](NC(=O)[C@H](CO)NC(=O)[C@H](Cc1ccc(O)cc1)NC(=O)[C@H](CC(=O)O)NC(=O)[C@H](CO)NC(=O)[C@@H](NC(=O)[C@H](Cc1ccccc1)NC(=O)[C@@H](NC(=O)CNC(=O)[C@H](CCC(=O)O)NC(=O)[C@@H](C)NC(=O)[C@@H](N)Cc1ccc(O)cc1)[C@@H](C)O)[C@@H](C)O)C(=O)N[C@@H](C)C(=O)N[C@@H](CC(C)C)C(=O)N[C@@H](CC(=O)O)C(=O)N[C@@H](CCCCN)C(=O)N[C@@H](CCCCNC(=O)COCCOCCNC(=O)COCCOCCNC(=O)CC[C@H](NC(=O)CCCCCCCCCCCCCCCCCCC(=O)O)C(=O)O)C(=O)N[C@@H](C)C(=O)N[C@@H](CCC(N)=O)C(=O)N[C@@H](CCCNC(=N)N)C(=O)N[C@@H](C)C(=O)N[C@@H](Cc1ccccc1)C(=O)N[C@H](C(=O)N[C@@H](CCC(=O)O)C(=O)N[C@@H](Cc1c[nH]c2ccccc12)C(=O)N[C@@H](CC(C)C)C(=O)N[C@@H](CC(C)C)C(=O)N[C@@H](C)C(=O)N[C@@H](CCC(N)=O)C(=O)N[C@@H](CCCCN)C(=O)N1CCC[C@H]1C(=O)N[C@@H](CO)C(=O)N[C@@H](CO)C(=O)NCC(=O)N[C@@H](C)C(=O)N1CCC[C@H]1C(=O)N1CCC[C@H]1C(=O)N1CCC[C@H]1C(=O)N[C@@H](CO)C(N)=O)C(C)C [Compound 39] (H-Y[dA]EGTFTSDYSIALDKK([AEEA-AEEA-γGlu-C20 diacid])AQRAFVEWLLAQKPSSGAPPPS-NH2) | 0.006 nM | 0.011 nM
2 | CC[C@H](C)[C@H](NC(=O)[C@H](CO)NC(=O)[C@H](Cc1ccc(O)cc1)NC(=O)[C@H](CC(=O)O)NC(=O)[C@H](CO)NC(=O)[C@@H](NC(=O)[C@H](Cc1ccccc1)NC(=O)[C@@H](NC(=O)CNC(=O)[C@H](CCC(=O)O)NC(=O)C(C)(C)NC(=O)[C@@H](N)Cc1ccc(O)cc1)[C@@H](C)O)[C@@H](C)O)C(=O)N[C@@H](C)C(=O)N[C@@H](CC(C)C)C(=O)N[C@@H](CC(=O)O)C(=O)N[C@@H](CCCCN)C(=O)N[C@@H](CCCCNC(=O)COCCOCCNC(=O)COCCOCCNC(=O)CC[C@H](NC(=O)CCCCCCCCCCCCCCCCCCC(=O)O)C(=O)O)C(=O)N[C@@H](C)C(=O)N[C@@H](CCC(N)=O)C(=O)N[C@@H](CCCNC(=N)N)C(=O)N[C@@H](C)C(=O)N[C@@H](Cc1ccccc1)C(=O)N[C@H](C(=O)N[C@@H](CCC(=O)O)C(=O)N[C@@H](Cc1c[nH]c2ccccc12)C(=O)N[C@@H](CC(C)C)C(=O)N[C@@H](CC(C)C)C(=O)N[C@@H](C)C(=O)N[C@@H](C)C(=O)N1CCC[C@H]1C(=O)N[C@@H](CO)C(=O)N[C@@H](CO)C(=O)NCC(=O)N[C@@H](C)C(=O)N1CCC[C@H]1C(=O)N1CCC[C@H]1C(=O)N1CCC[C@H]1C(=O)N[C@@H](CO)C(N)=O)C(C)C [Compound 40] (H-Y[Aib]EGTFTSDYSIALDKK([AEEA-AEEA-γGlu-C20 diacid])AQRAFVEWLLAAPSSGAPPPS-NH2) | 0.021 nM | 0.023 nM
3 | CC[C@H](C)[C@H](NC(=O)[C@H](CO)NC(=O)[C@H](Cc1ccc(O)cc1)NC(=O)[C@H](CC(=O)O)NC(=O)[C@H](CO)NC(=O)[C@@H](NC(=O)[C@H](Cc1ccccc1)NC(=O)[C@@H](NC(=O)CNC(=O)[C@H](CCC(=O)O)NC(=O)C(C)(C)NC(=O)[C@@H](N)Cc1ccc(O)cc1)[C@@H](C)O)[C@@H](C)O)C(=O)N[C@@H](C)C(=O)N[C@@H](CC(C)C)C(=O)N[C@@H](CC(=O)O)C(=O)N[C@@H](CCCCN)C(=O)N[C@@H](CCCCNC(=O)COCCOCCNC(=O)COCCOCCNC(=O)CC[C@H](NC(=O)CCCCCCCCCCCCCCCCCCC(=O)O)C(=O)O)C(=O)N[C@@H](C)C(=O)N[C@@H](C)C(=O)N[C@@H](CCCCN)C(=O)N[C@@H](CCC(=O)O)C(=O)N[C@@H](Cc1ccccc1)C(=O)N[C@H](C(=O)N[C@@H](CCC(=O)O)C(=O)N[C@@H](Cc1c[nH]c2ccccc12)C(=O)N[C@@H](CC(C)C)C(=O)N[C@@H](CC(C)C)C(=O)N[C@@H](CO)C(=O)N[C@@H](C)C(=O)NCC(=O)N1CCC[C@H]1C(=O)N[C@@H](CO)C(=O)N[C@@H](CO)C(=O)NCC(=O)N[C@@H](C)C(=O)N1CCC[C@H]1C(=O)N1CCC[C@H]1C(=O)N1CCC[C@H]1C(=O)N[C@@H](CO)C(N)=O)C(C)C [Compound 41] (H-Y[Aib]EGTFTSDYSIALDKK([AEEA-AEEA-γGlu-C20 diacid])AAKEFVEWLLSAGPSSGAPPPS-NH2) | 0.038 nM | 0.015 nM
4 | CC[C@H](C)[C@H](NC(=O)[C@H](CO)NC(=O)[C@H](Cc1ccc(O)cc1)NC(=O)[C@H](CC(=O)O)NC(=O)[C@H](CO)NC(=O)[C@@H](NC(=O)[C@H](Cc1ccccc1)NC(=O)[C@@H](NC(=O)CNC(=O)[C@H](CCC(=O)O)NC(=O)C(C)(C)NC(=O)[C@@H](N)Cc1ccc(O)cc1)[C@@H](C)O)[C@@H](C)O)C(=O)N[C@@H](C)C(=O)N[C@@H](CC(C)C)C(=O)N[C@@H](CC(=O)O)C(=O)N[C@@H](CCCCN)C(=O)N[C@@H](CCCCNC(=O)COCCOCCNC(=O)COCCOCCNC(=O)CC[C@H](NC(=O)CCCCCCCCCCCCCCCCCCC(=O)O)C(=O)O)C(=O)N[C@@H](C)C(=O)N[C@@H](CCC(N)=O)C(=O)N[C@@H](CCCNC(=N)N)C(=O)N[C@@H](C)C(=O)N[C@@H](Cc1ccccc1)C(=O)N[C@H](C(=O)N[C@@H](CCC(=O)O)C(=O)N[C@@H](Cc1c[nH]c2ccccc12)C(=O)N[C@@H](CC(C)C)C(=O)N[C@@H](CC(C)C)C(=O)N[C@@H](C)C(=O)N[C@@H](CCC(N)=O)C(=O)NCC(=O)N1CCC[C@H]1C(=O)N[C@@H](CO)C(=O)N[C@@H](CO)C(=O)NCC(=O)N[C@@H](C)C(=O)N1CCC[C@H]1C(=O)N1CCC[C@H]1C(=O)N1CCC[C@H]1C(=O)N[C@@H](CO)C(N)=O)C(C)C [Compound 42] (H-Y[Aib]EGTFTSDYSIALDKK([AEEA-AEEA-γGlu-C20 diacid])AQRAFVEWLLAQGPSSGAPPPS-NH2) | 0.017 nM | 0.009 nM
5 | CC[C@H](C)[C@H](NC(=O)[C@H](CO)NC(=O)[C@H](Cc1ccc(O)cc1)NC(=O)[C@H](CC(=O)O)NC(=O)[C@H](CO)NC(=O)[C@@H](NC(=O)[C@H](Cc1ccccc1)NC(=O)[C@@H](NC(=O)CNC(=O)[C@H](CCC(=O)O)NC(=O)C(C)(C)NC(=O)[C@@H](N)Cc1ccc(O)cc1)[C@@H](C)O)[C@@H](C)O)C(=O)N[C@@H](C)C(=O)N[C@@H](CC(C)C)C(=O)N[C@@H](CC(=O)O)C(=O)N[C@@H](CCC(=O)O)C(=O)N[C@@H](CCCCNC(=O)COCCOCCNC(=O)COCCOCCNC(=O)CC[C@H](NC(=O)CCCCCCCCCCCCCCCCCCC(=O)O)C(=O)O)C(=O)N[C@@H](C)C(=O)N[C@@H](CCC(N)=O)C(=O)N[C@@H](CCCNC(=N)N)C(=O)N[C@@H](C)C(=O)N[C@@H](Cc1ccccc1)C(=O)N[C@H](C(=O)N[C@@H](CCC(=O)O)C(=O)N[C@@H](Cc1c[nH]c2ccccc12)C(=O)N[C@@H](CC(C)C)C(=O)N[C@@H](CC(C)C)C(=O)N[C@@H](C)C(=O)N[C@@H](CCC(N)=O)C(=O)NCC(=O)N1CCC[C@H]1C(=O)N[C@@H](CO)C(=O)N[C@@H](CO)C(=O)NCC(=O)N[C@@H](C)C(=O)N1CCC[C@H]1C(=O)N1CCC[C@H]1C(=O)N1CCC[C@H]1C(=O)N[C@@H](CO)C(N)=O)C(C)C [Compound 43] (H-Y[Aib]EGTFTSDYSIALDEK([AEEA-AEEA-γGlu-C20 diacid])AQRAFVEWLLAQGPSSGAPPPS-NH2) | 0.016 nM | 0.005 nM
